30 compounds from patent US4560692A, “4-Piperidino-2-phenylquinolines” (Hoffmann-La Roche Inc., priority 1984, dated 1985) can be followed below.

Each structure is given as a SMILES string. Like-named read-outs stand apart in the source and are kept apart here.

The test system of series [1] is convulsive seizures (Ptz. administered intraveneously). Kind of series: Intravenous antipentylenetetrazole (Ptz.) test, oral compound, protection against convulsions. The format is in vivo, Male CF-1 mice. As to conditions: Mus musculus. As for the experimental part: (§1) Utilizing the procedures given below, the compounds of formula I synthesized in the previous examples were assayed for antimetrezol activity and ^3 H-diazepam binding activity. The 24 hour acute toxicity (LD-50, expressed as mg/kg) of each of these compounds was also determined in the standard fashion.
Male CF-1 mice, 45-54 days old, housed in the same facility for one week and food-deprived for about 24 hours are used in this test. […] One hour later, Ptz. is administered intraveneously at 70 mg/kg (convulsant dose 100) and animals are observed 30 seconds for protection against convulsions. If the compound is active orally 8 animals are used per dose level. […] Calculations: The ED50 values and 95% fiducial limits are calculated using a computer program based on the method of D. J. Finney ("Probit Analysis", Cambridge University Press, Cambridge, England, 1971).

Series [2] has as its target ^3 H-Diazepam binding, rat brain cortical fragments. Briefly: ^3 H-Diazepam binding assay. To be noted: inhibition of ^3 H-Diazepam binding by 50%. As for the experimental part: Rat brain cortical fragments are prepared and the binding procedures performed as described by Mohler and Okada (Life Sciences, 20, 2101, 1977) except that Tris buffer is substituted for Krebs buffer. Drugs are assayed in triplicate. Radioactivity is measured by liquid scintillation counting.

A short description of series [3]: 24 hour acute toxicity (LD-50). As to conditions: in vivo, ">" = not tested above indicated value. On the procedure: as §1
Where [4] appears, read: compounds of formula I, oral, 1 h before Ptz. 70 mg/kg i.v., mice, ">" = not tested above indicated value, read-out: Ptz. ED50.
[5] abbreviates: compounds of formula I, read-out: ^3 H-Dz. IC50.
Where [6] appears, read: po, 1 h, read-out: ED50 (95% Fiducial Limits).

In the case of `CNC(=O)C1CCN(c2cc(-c3ccc(F)cc3)nc3ccc(F)cc23)CC1` [1-6-Fluoro-2-(4-fluorophenyl)-4-quinolinyl)]-N-methyl-4-piperidinecarboxamide], in series [1] (setting [4]), the ED50 worked out at 13 mg/kg. Further, in series [2] (setting [5]), the IC50 came to 1.8 nM. The compound also yielded an LD50 at 24 h in series [3] greater than 1000 mg/kg.
On the same counts, the results for `CCNC(=O)C1CCN(c2cc(-c3ccc(F)cc3)nc3ccc(F)cc23)CC1` [1-Ethyl-1-[6-fluoro-2-(4-fluorophenyl)-4-quinolinyl]-4-piperidinecarboxamide] are 22 mg/kg, 3 nM and greater than 1000 mg/kg.
The matching figures for `NC(=O)C1CCN(c2cc(-c3ccc(Br)cc3)nc3ccccc23)CC1` [1-[2-(4-Bromophenyl)-4-quinolinyl]-4-piperidinecarboxamide]: 41 mg/kg, 35 nM and greater than 1000 mg/kg.
For `CCN(CC)C(=O)C1CCN(c2cc(-c3ccc(Cl)cc3)nc3ccccc23)CC1` [1-[2-(4-Chlorophenyl)-4-quinolinyl]-N,N-diethyl-4-piperidinecarboxamide], the IC50 in series [2] (setting [5]) came to 500 nM.
Regarding `CN(C)C(=O)C1CCN(c2cc(-c3ccc(Cl)cc3)nc3ccccc23)CC1` [1-[2-(4-Chlorophenyl)-4-quinolinyl]-N,N-dimethyl-4-piperidinecarboxamide], the ED50 in series [1] (setting [4]) is 24 mg/kg. The IC50 in series [2] (setting [5]) was determined as 80 nM. The compound further displayed an LD50 at 24 h in series [3] greater than 1000 mg/kg.
With `CNC(=O)C1CCN(c2cc(-c3ccc(Cl)cc3)nc3ccccc23)CC1` [1-[2-(4-Chlorophenyl)-4-quinolinyl]-N-methyl-4-piperidinecarboxamide], the ED50 in series [1] (setting [4]) was determined as 9 mg/kg. Besides, in series [2] (setting [5]), the IC50 was 19.5 nM. In addition, the LD50 at 24 h in series [3] is greater than 1000 mg/kg.
The matching figures for `NC(=O)C1CCN(c2cc(-c3ccc(Cl)cc3)nc3ccc(F)cc23)CC1` [1-[2-(4-Chlorophenyl)-6-fluoro-4-quinolinyl]-4-piperidinecarboxamide]: 15 mg/kg, 36 nM and greater than 1000 mg/kg.
Consider `Cc1ccc2nc(-c3ccc(Cl)cc3)cc(N3CCC(C(N)=O)CC3)c2c1` [1-[2-(4-Chlorophenyl)-6-methyl-4-quinolinyl]-4-piperidinecarboxamide], for which the IC50 in series [2] (setting [5]) came to 460 nM.
Take `NC(=O)C1CCN(c2cc(-c3ccc(F)cc3)nc3ccccc23)CC1` [1-[2-(4-Fluorophenyl)-4-quinolinyl]-4-piperidinecarboxamide]: the ED50 in series [1] (setting [4]) is greater than 100 mg/kg. Also, in series [2] (setting [5]), the IC50 was 1.1 nM. In addition, the 50% lethal dose (LD50) at 24 h in series [3] was greater than 1000 mg/kg.
As for `NC(=O)C1CCN(c2cc(-c3ccc(Cl)cc3)nc3ccccc23)CC1` [1-[2-(4-chlorophenyl)-4-quinolinyl]-4-piperidinecarboxamide], in series [1] (setting [4]), the ED50 amounted to 24 mg/kg. For the same compound, the IC50 in series [2] (setting [5]) turned out to be 29 nM. The LD50 at 24 h in series [3] was greater than 1000 mg/kg.
The matching figures for `CCNC(=O)C1CCN(c2cc(-c3ccc(Cl)cc3)nc3ccccc23)CC1` [1-[2-(4-chlorophenyl)-4-quinolinyl]-N-ethyl-4-piperidinecarboxamide]: 26 mg/kg, 9 nM and greater than 1000 mg/kg.
On the same counts, the results for `Cc1ccc2nc(-c3ccc(F)cc3)cc(N3CCC(C(N)=O)CC3)c2c1` [1-[2-(4-fluorophenyl)-6-methyl-4-quinolinyl]-4-piperidinecarboxamide] are greater than 100 mg/kg, 34 nM and greater than 1000 mg/kg.
The matching figures for `Cc1ccc(-c2cc(N3CCC(C(N)=O)CC3)c3ccccc3n2)cc1` [1-[2-(4-methylphenyl)-4-quinolinyl]-4-piperidinecarboxamide]: 37 mg/kg, 1.7 nM and greater than 1000 mg/kg.
In the case of `NC(=O)C1CCN(c2cc(-c3ccc(F)cc3)nc3ccc(Cl)cc23)CC1` [1-[6-Chloro-2-(4-fluorophenyl)-4-quinolinyl]-4-piperidinecarboxamide], in series [1] (setting [4]), the ED50 is 29 mg/kg. Also, the IC50 in series [2] (setting [5]) stood at 28 nM. Also, the LD50 at 24 h in series [3] is greater than 1000 mg/kg.
The matching figures for `CNC(=O)C1CCN(c2cc(-c3ccc(F)cc3)nc3ccc(Cl)cc23)CC1` [1-[6-Chloro-2-(4-fluorophenyl)-4-quinolinyl]-N-methyl-4-piperidinecarboxamide]: 37 mg/kg, 10.5 nM and greater than 1000 mg/kg.
On the same counts, the results for `Cc1ccc(-c2cc(N3CCC(C(N)=O)CC3)c3cc(Cl)ccc3n2)cc1` [1-[6-Chloro-2-(4-methylphenyl)-4-quinolinyl]-4-piperidinecarboxamide] are greater than 100 mg/kg, 60 nM and greater than 1000 mg/kg.
Consider `NC(=O)C1CCN(c2cc(-c3ccccc3)nc3ccc(Cl)cc23)CC1` [1-[6-Chloro-2-phenyl-4-quinolinyl]-4-piperidinecarboxamide], for which, in series [1] (setting [4]), the ED50 was determined as 50 mg/kg. Moreover, the IC50 in series [2] (setting [5]) was 96 nM. In series [3], this compound returned an LD50 at 24 h greater than 1000 mg/kg.
As to `CNC(=O)C1CCN(c2cc(-c3ccc(Cl)cc3)nc3ccc(F)cc23)CC1` [1-[6-Fluoro-2-(4-chlorophenyl)-4-quinolinyl]-N-methyl-4-piperidinecarboxamide], the ED50 in series [1] (setting [4]) is greater than 300 mg/kg. Further, the IC50 in series [2] (setting [5]) was determined as 70 nM. In series [3], this compound came in with an LD50 at 24 h greater than 1000 mg/kg.
The matching figures for `NC(=O)C1CCN(c2cc(-c3ccc(F)cc3)nc3ccc(F)cc23)CC1` [1-[6-Fluoro-2-(4-fluorophenyl)-4-quinolinyl]-4-piperidinecarboxamide]: 5 mg/kg, 1 nM and greater than 1000 mg/kg.
On the same counts, the results for `Cc1ccc(-c2cc(N3CCC(C(N)=O)CC3)c3cc(F)ccc3n2)cc1` [1-[6-Fluoro-2-(4-methylphenyl)-4-quinolinyl]-4-piperidinecarboxamide] are 88 mg/kg, 5.4 nM and greater than 1000 mg/kg.
On the same counts, the results for `NC(=O)C1CCN(c2cc(-c3ccccc3)nc3ccc(F)cc23)CC1` [1-[6-Fluoro-2-phenyl-4-quinolinyl]-4-piperidinecarboxamide] are 120 mg/kg, 3.6 nM and greater than 1000 mg/kg.
Consider `CCCNC(=O)C1CCN(c2cc(-c3ccccc3)nc3ccc(F)cc23)CC1` [1-[6-Fluoro-2-phenyl-4-quinolinyl]-N-propyl-4-piperidinecarboxamide], for which the ED50 in series [1] (setting [4]) is greater than 100 mg/kg. The IC50 in series [2] (setting [5]) worked out at 13 nM. Also, the LD50 at 24 h in series [3] was greater than 1000 mg/kg.
As for `Cc1ccc(-c2cc(N3CCC(C(N)=O)CC3)c3cc(C)ccc3n2)cc1` [1-[6-Methyl-2-(4-methylphenyl)-4-quinolinyl]-4-piperidinecarboxamide], the IC50 in series [2] (setting [5]) was 290 nM.
Regarding `Cc1ccc2nc(-c3ccccc3)cc(N3CCC(C(N)=O)CC3)c2c1` [1-[6-Methyl-2-phenyl-4-quinolinyl]-4-piperidinecarboxamide], in series [1] (setting [4]), the ED50 is 90 mg/kg. Also, in series [2] (setting [5]), the IC50 turned out to be 28 nM. In series [3], this compound came in with an LD50 at 24 h greater than 1000 mg/kg.
Consider `NC(=O)C1CCN(c2cc(-c3ccc(Cl)cc3)nc3ccc(Cl)cc23)CC1` [1-[6-chloro-2-(4-chlorophenyl)-4-quinolinyl]-4-piperidinecarboxamide], for which, in series [2] (setting [5]), the IC50 was determined as 205 nM.
Regarding `CNC1=Nc2ccc(Cl)cc2C(c2ccccc2)=[N+]([O-])C1` [Chlordiazepoxide, reference compound], the ED50 in series [1] (setting [6]) turned out to be 3.9 mg/kg.
On to `CN1C(=O)CN=C(c2ccccc2)c2cc(Cl)ccc21` [Diazepam, reference compound], for which the ED50 in series [1] (setting [6]) worked out at 1 mg/kg.
On to `CCN(CC)CCN1C(=O)CN=C(c2ccccc2F)c2cc(Cl)ccc21` [Flurazepam, reference compound], for which the IC50 in series [2] (standard drugs, read-out: IC50) was found to be 15.6 nM.
For the compound `CCNC(=O)C1CCN(c2cc(-c3ccccc3)nc3ccc(F)cc23)CC1` [N-Ethyl-1-[6-fluoro-2-phenyl-4-quinolinyl]-4-piperidinecarboxamide], in series [1] (setting [4]), the ED50 worked out at 58 mg/kg. The IC50 in series [2] (setting [5]) amounted to 2.8 nM. Moreover, the LD50 at 24 h in series [3] is greater than 1000 mg/kg.
For the compound `CCC1(c2ccccc2)C(=O)NC(=O)NC1=O` [Sodium Phenobarbital, reference compound], in series [1] (setting [6]), the ED50 was 19 mg/kg.

The term ED50 denotes the dose that gives a 50% effect, or the effect in half of the subjects. A word on the IC50: it is the midpoint of a concentration-inhibition curve. As usually defined, the LD50 is the dose at which mortality reaches 50%. Low readings indicate a more toxic substance, high ones a less toxic substance.
